molecular target: T1, CFTR (Homo sapiens, UniProt P13569); experiment: T84 assay (FLIPR membrane potential dye, forskolin/IBMX-stimulated CFTR channel activity); type: cell-based; settings: imidazole and triazole-containing compounds (Tables 13, 14, 14′), read-out: IC50 (μM) (T84 assay)
T1 construct: endogenous in cells; host or cells: T84 human colonic cells (ECACC)
Procedure, shortened: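 Fluorescence from a membrane potential dye in T84 monolayers (HBSS with 10 mM Hepes) is followed each second for 150 s. Cells are exposed to test compound during the 45 min dye loading, then challenged with forskolin (10 μM) and IBMX (100 μM) to open CFTR. Inhibitors suppress the depolarization-driven fluorescence increase.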

T1 sequence (P13569 whole entry): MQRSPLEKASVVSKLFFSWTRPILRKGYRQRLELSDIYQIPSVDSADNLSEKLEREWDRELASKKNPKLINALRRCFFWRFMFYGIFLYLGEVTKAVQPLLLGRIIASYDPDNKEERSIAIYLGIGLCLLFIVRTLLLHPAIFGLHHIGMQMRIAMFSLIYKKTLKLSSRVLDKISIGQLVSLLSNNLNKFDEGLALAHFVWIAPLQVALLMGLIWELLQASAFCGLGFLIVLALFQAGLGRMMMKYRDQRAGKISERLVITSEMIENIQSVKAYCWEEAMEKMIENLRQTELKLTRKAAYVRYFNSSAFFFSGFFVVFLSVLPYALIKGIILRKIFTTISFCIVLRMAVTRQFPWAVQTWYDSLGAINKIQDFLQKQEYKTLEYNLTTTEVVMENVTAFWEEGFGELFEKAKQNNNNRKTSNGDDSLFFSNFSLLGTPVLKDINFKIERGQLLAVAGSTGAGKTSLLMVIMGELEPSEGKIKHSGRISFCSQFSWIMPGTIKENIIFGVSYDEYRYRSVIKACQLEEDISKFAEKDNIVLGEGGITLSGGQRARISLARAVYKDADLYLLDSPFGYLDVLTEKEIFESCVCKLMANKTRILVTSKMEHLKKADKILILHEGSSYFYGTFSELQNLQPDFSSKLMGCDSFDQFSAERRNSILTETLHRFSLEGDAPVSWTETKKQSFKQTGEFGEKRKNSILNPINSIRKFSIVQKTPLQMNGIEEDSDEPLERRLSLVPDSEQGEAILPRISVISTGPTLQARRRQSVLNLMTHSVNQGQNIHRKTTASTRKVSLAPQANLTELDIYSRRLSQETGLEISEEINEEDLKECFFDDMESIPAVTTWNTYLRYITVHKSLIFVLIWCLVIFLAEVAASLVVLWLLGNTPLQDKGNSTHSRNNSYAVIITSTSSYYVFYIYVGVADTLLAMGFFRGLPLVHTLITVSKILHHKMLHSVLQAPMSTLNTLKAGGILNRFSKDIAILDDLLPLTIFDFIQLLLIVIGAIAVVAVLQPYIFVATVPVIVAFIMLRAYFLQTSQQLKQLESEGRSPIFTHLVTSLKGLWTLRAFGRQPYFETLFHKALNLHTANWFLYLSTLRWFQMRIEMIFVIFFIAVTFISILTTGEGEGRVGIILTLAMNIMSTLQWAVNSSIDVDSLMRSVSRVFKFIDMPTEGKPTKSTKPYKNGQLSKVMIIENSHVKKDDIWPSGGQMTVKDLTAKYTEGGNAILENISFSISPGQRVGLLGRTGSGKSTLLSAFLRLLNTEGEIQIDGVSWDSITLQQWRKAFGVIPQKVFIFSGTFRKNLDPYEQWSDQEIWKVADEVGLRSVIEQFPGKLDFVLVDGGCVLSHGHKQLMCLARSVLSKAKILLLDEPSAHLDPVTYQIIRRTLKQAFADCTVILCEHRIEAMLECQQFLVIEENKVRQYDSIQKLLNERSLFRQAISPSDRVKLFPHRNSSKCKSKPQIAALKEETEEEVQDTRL

IC50	Structure (SMILES)
4.87 µM	O=C(c1ncn(-c2cc(Cl)c(O)c(Cl)c2)n1)N(O)Cc1ccc(Oc2ccccc2)cc1 [131i, 1-(3,5-dichloro-4-hydroxyphenyl)-N-hydroxy-N-(4-phenoxybenzyl)-1H-1,2,4-triazole-3-carboxamide]
21.1 µM	Oc1c(Cl)cc(-n2cnc(C(O)(Cc3ccccc3F)Cc3ccccc3F)n2)cc1Cl [59i, 4-(3-(1,3-bis(2-fluorophenyl)-2-hydroxypropan-2-yl)-1H-1,2,4-triazol-1-yl)-2,6-dichlorophenol]
3.7 µM	O=C(NCc1cc(Cl)cc(Cl)c1)c1ncn(-c2cc(Cl)c(O)c(Cl)c2)n1 [36i, 1-(3,5-dichloro-4-hydroxyphenyl)-N-(3,5-dichlorobenzyl)-1H-1,2,4-triazole-3-carboxamide]
4.72 µM	O=C(NCc1ccc(Oc2ccc(Cl)c(C(F)(F)F)c2)cc1)c1ncn(-c2cc(Cl)c(O)c(Cl)c2)n1 [70i, N-(4-(4-chloro-3-(trifluoromethyl)phenoxy)benzyl)-1-(3,5-dichloro-4-hydroxyphenyl)-1H-1,2,4-triazole-3-carboxamide]
8.15 µM	O=C(c1ncn(-c2cc(Cl)c(O)c(Cl)c2)n1)N1CCN(c2cccc(C(F)(F)F)c2)CC1 [4i, (1-(3,5-dichloro-4-hydroxyphenyl)-1H-1,2,4-triazol-3-yl)(4(3-(trifluoromethyl)phenyl)piperazin-1-yl)methanone]
1.49 µM	CON(Cc1ccc(C(C)(C)C)cc1)C(=O)c1ncn(-c2cc(Cl)c(O)c(Cl)c2)n1 [127i, N-(4-tert-butylbenzyl)-1-(3,5-dichloro-4-hydroxyphenyl)-N-methoxy-1H-1,2,4-triazole-3-carboxamide]
2.8 µM	COCCOCCOCCOCCN(Cc1cccc(OC(F)(F)F)c1)C(=O)c1ncn(-c2cc(Cl)c(O)c(Cl)c2)n1 [115i, 1-(3,5-dichloro-4-hydroxyphenyl)-N-(2,5,8,11-tetraoxatridecan-13-yl)-N-(3-(trifluoromethoxy)benzyl)-1H-1,2,4-triazole-3-carboxamide]
12.6 µM	O=C(NCc1cccc(Cl)c1)c1ncn(-c2cc(Cl)c(O)c(Cl)c2)n1 [47i, N-(3-chlorobenzyl)-1-(3,5-dichloro-4-hydroxyphenyl)-1H-1,2,4-triazole-3-carboxamide]
8.22 µM	O=C(NCc1ccc(N2CCCCC2)cc1)c1ncn(-c2cc(Cl)c(O)c(Cl)c2)n1 [45i, 1-(3,5-dichloro-4-hydroxyphenyl)-N-(4-(piperidin-1-yl)benzyl)-1H-1,2,4-triazole-3-carboxamide]

same assay, conditions: oxadiazole-containing compounds (a series), average of at least 2 runs unless annotated n = 1, read-out: IC50

IC50	Structure (SMILES)
19.6 µM	O=C(NCc1ccc(Oc2ccc(C(F)(F)F)cc2)cc1)c1nc(-c2cc(Cl)c(O)c(Cl)c2)no1 [198a, 3-(3,5-dichloro-4-hydroxyphenyl)-N-(4-(4-(trifluoromethyl)phenoxy)benzyl)-1,2,4-oxadiazole-5-carboxamide]
7.26 µM	CN(C)c1cccc(CNC(=O)c2noc(-c3cc(Cl)c(O)c(Cl)c3)n2)c1 [160a, 5-(3,5-dichloro-4-hydroxyphenyl)-N-(3-(dimethylamino)benzyl)-1,2,4-oxadiazole-3-carboxamide]
16.3 µM	CN(Cc1cccc(-c2cncnc2)c1)C(=O)c1nc(-c2cc(Cl)c(O)c(Cl)c2)no1 [177a, 3-(3,5-dichloro-4-hydroxyphenyl)-N-methyl-N-(3-(pyrimidin-5-yl)benzyl)-1,2,4-oxadiazole-5-carboxamide]
11.2 µM	O=C(NCc1ccc(F)c(C(F)(F)F)c1)c1nc(-c2cc(Cl)c(O)c(Cl)c2)no1 [146a, 3-(3,5-dichloro-4-hydroxyphenyl)-N-(4-fluoro-3-(trifluoromethyl)benzyl)-1,2,4-oxadiazole-5-carboxamide]
29.9 µM	O=C(NCc1cccc(-c2ncccn2)c1)c1nc(-c2cc(Cl)c(O)c(Cl)c2)no1 [147a, 3-(3,5-dichloro-4-hydroxyphenyl)-N-(3-(pyrimidin-2-yl)benzyl)-1,2,4-oxadiazole-5-carboxamide]
3.33 µM	O=C(NCc1cccc(N2CCCCC2)c1)c1noc(-c2cc(Cl)c(O)c(Cl)c2)n1 [157a, 5-(3,5-dichloro-4-hydroxyphenyl)-N-(3-(piperidin-1-yl)benzyl)-1,2,4-oxadiazole-3-carboxamide]

The next lines start with the compound.

Structure (SMILES)	IC50
CN(Cc1cccc(C(F)(F)F)c1)C(=O)c1nc(-c2cc(Br)c(O)c(Br)c2)no1 [11a, 3-(3,5-dibromo-4-hydroxyphenyl)-N-methyl-N-(3-(trifluoromethyl)benzyl)-1,2,4-oxadiazole-5-carboxamide]	7.74 µM
O=C(NCc1ccccc1)c1nc(-c2cc(Br)c(O)c(Br)c2)no1 [33a, N-benzyl-3-(3,5-dibromo-4-hydroxyphenyl)-1,2,4-oxadiazole-5-carboxamide]	17.8 µM
O=C(c1nc(-c2cc(Br)c(O)c(Br)c2)no1)N1CCC(C(O)(c2ccccc2)c2ccccc2)CC1 [203a, (3-(3,5-dibromo-4-hydroxyphenyl)-1,2,4-oxadiazol-5-yl)(4-(hydroxydiphenylmethyl)piperidin-1-yl)methanone]	25.9 µM
O=C(NC(c1ccccc1)c1ccccc1)c1nc(-c2cc(Br)c(O)c(Br)c2)no1 [5a, N-benzhydryl-3-(3,5-dibromo-4-hydroxyphenyl)-1,2,4-oxadiazole-5-carboxamide]	5.23 µM
O=C(c1noc(-c2cc(Cl)c(O)c(Cl)c2)n1)N1CCC(Cc2ccccc2)CC1 [78a, (4-benzylpiperidin-l-yl)(5-(3,5-dichloro-4-hydroxyphenyl)-1,2,4-oxadiazol-3-yl)methanone]	11.2 µM
CN(Cc1cccc(OC(F)(F)F)c1)C(=O)c1nc(-c2cc(Br)c(O)c(Br)c2)no1 [38a, 3-(3,5-dibromo-4-hydroxyphenyl)-N-methyl-N-(3-(trifluoromethoxy)benzyl)-1,2,4-oxadiazole-5-carboxamide]	2.52 µM
O=C(NCc1ccccc1F)c1nc(-c2cc(Br)c(O)c(Br)c2)no1 [35a, 3-(3,5-dibromo-4-hydroxyphenyl)-N-(2-fluorobenzyl)-1,2,4-oxadiazole-5-carboxamide]	19.2 µM
O=C(c1nc(-c2cc(Br)c(O)c(Br)c2)no1)N1CCN(c2cccc(F)c2)CC1 [32a, (3-(3,5-dibromo-4-hydroxyphenyl)-1,2,4-oxadiazol-5-yl)(4-(3-fluorophenyl)piperazin-1-yl)methanone]	17.2 µM
CC(C)(C)c1ccc(N2CCN(C(=O)c3nc(-c4cc(Br)c(O)c(Br)c4)no3)CC2)cc1 [25a, (4-(4-tert-butylphenyl)piperazin-1-yl)(3-(3,5-dibromo-4-hydroxyphenyl)-1,2,4-oxadiazol-5-y1)methanone]	10.9 µM
O=C(c1nc(-c2cc(Cl)c(O)c(Cl)c2)no1)N(Cc1cccnc1)Cc1cccc(C(F)(F)F)c1 [89a, 3-(3,5-dichloro-4-hydroxyphenyl)-N-(pyridin-3-ylmethyl)-N-(3-(trifluoromethyl)benzyl)-1,2,4-oxadiazole-5-carboxamide]	2.52 µM
O=C(c1nc(-c2cc(Cl)c(O)c(Cl)c2)no1)N1CCN(c2cccc(C(F)(F)F)c2)CC1 [8a, (3-(3,5-dichloro-4-hydroxyphenyl)-1,2,4-oxadiazol-5-yl)(4-(3-(trifluoromethyl)phenyl) 4-(3-(trifluoromethyl)phenyl)piperazin-1-yl)methanone]	6.88 µM
O=C(c1nc(-c2cc(Br)c(O)c(Br)c2)no1)N1CCN(c2ccc(Cl)cc2F)CC1 [19a, (4-(4-chloro-2-fluorophenyl)piperazin-1-yl)(3-(3,5-dibromo-4-hydroxyphenyl)-1,2,4-oxadiazol-5-yl)methanone]	7.1 µM
O=C(COc1c(Br)cc(-c2noc(C(=O)N3CCC(Cc4ccccc4)CC3)n2)cc1Br)N(CCO)CCO [71a, 2-(4-(5-(4-benzylpiperidine-1-carbonyl)-1,2,4-oxadiazol-3-yl)-2,6-dibromophenoxy)-N,N-bis(2-hydroxyethyl)acetamide]	18.9 µM
O=C(c1nc(-c2cc(Cl)c(O)c(Cl)c2)no1)N(Cc1ccccc1)Cc1cccnc1 [167a, N-benzyl-3-(3,5-dichloro-4-hydroxyphenyl)-N-(pyridin-3-ylmethyl)-1,2,4-oxadiazole-5-carboxamide]	9.61 µM
O=C(NC(c1ccccc1)c1ccccc1)c1nc(-c2cc(Cl)c(O)c(Cl)c2)no1 [15a, N-benzhydryl-3-(3,5-dichloro-4-hydroxyphenyl)-1,2,4-oxadiazole-5-carboxamide]	9 µM
CC(C)(C)C(=O)CN(Cc1cccc(OC(F)(F)F)c1)C(=O)c1nc(-c2cc(Cl)c(O)c(Cl)c2)no1 [164a, 3-(3,5-dichloro-4-hydroxyphenyl)-N-(3,3-dimethyl-2-oxobutyl)-N-(3-(trifluoromethoxy)benzyl)-1,2,4-oxadiazole-5-carboxamide]	12.9 µM

same assay, conditions: thiadiazole-containing compounds (Table 12), read-out: IC50

IC50	Structure (SMILES)
23.4 µM	Oc1c(Cl)cc(-c2nnc(COc3cccc(C(F)(F)F)c3)s2)cc1Cl [7h, 2,6-dichloro-4(5-((3-(trifluoromethyl)phenoxy)methyl)-1,3,4-thiadiazol-2-yl)phenol]

molecular target: T2, CHO-CFTR cell line (Homo sapiens, UniProt P13569); experiment: CHO-CFTR assay (FLIPR assay, same conditions as the T84 assay); type: cell-based; settings: imidazole and triazole-containing compounds
T2 construct: expressed in transfected cells; host or cells: CHO (CHO-CFTR cell line)
T2 sequence (P13569 whole entry): as above

IC50	Structure (SMILES)
7.45 µM	O=C(c1ncn(-c2cc(Cl)c(O)c(Cl)c2)n1)N(O)Cc1ccc(Oc2ccccc2)cc1 [131i, 1-(3,5-dichloro-4-hydroxyphenyl)-N-hydroxy-N-(4-phenoxybenzyl)-1H-1,2,4-triazole-3-carboxamide]
5.45 µM	Oc1c(Cl)cc(-n2cnc(C(O)(Cc3ccccc3F)Cc3ccccc3F)n2)cc1Cl [59i, 4-(3-(1,3-bis(2-fluorophenyl)-2-hydroxypropan-2-yl)-1H-1,2,4-triazol-1-yl)-2,6-dichlorophenol]
13.7 µM	O=C(NCc1cc(Cl)cc(Cl)c1)c1ncn(-c2cc(Cl)c(O)c(Cl)c2)n1 [36i, 1-(3,5-dichloro-4-hydroxyphenyl)-N-(3,5-dichlorobenzyl)-1H-1,2,4-triazole-3-carboxamide]
19.4 µM	O=C(NCc1ccc(Oc2ccc(Cl)c(C(F)(F)F)c2)cc1)c1ncn(-c2cc(Cl)c(O)c(Cl)c2)n1 [70i, N-(4-(4-chloro-3-(trifluoromethyl)phenoxy)benzyl)-1-(3,5-dichloro-4-hydroxyphenyl)-1H-1,2,4-triazole-3-carboxamide]
14.3 µM	O=C(c1ncn(-c2cc(Cl)c(O)c(Cl)c2)n1)N1CCN(c2cccc(C(F)(F)F)c2)CC1 [4i, (1-(3,5-dichloro-4-hydroxyphenyl)-1H-1,2,4-triazol-3-yl)(4(3-(trifluoromethyl)phenyl)piperazin-1-yl)methanone]
32.9 µM	CON(Cc1ccc(C(C)(C)C)cc1)C(=O)c1ncn(-c2cc(Cl)c(O)c(Cl)c2)n1 [127i, N-(4-tert-butylbenzyl)-1-(3,5-dichloro-4-hydroxyphenyl)-N-methoxy-1H-1,2,4-triazole-3-carboxamide]
8.76 µM	O=C(NCc1ccc(Oc2cc(C(F)(F)F)cc(C(F)(F)F)c2)cc1)c1ncn(-c2cc(Cl)c(O)c(Cl)c2)n1 [62i, N-(4-(3,5-bis(trifluoromethyl)phenoxy)benzyl)-1-(3,5-dichloro-4-hydroxyphenyl)-1H-1,2,4-triazole-3-carboxamide]
4.81 µM	CN(C)c1cccc(Oc2ccc(CNC(=O)c3ncn(-c4cc(Cl)c(O)c(Cl)c4)n3)cc2)c1 [64i, 1-(3,5-dichloro-4-hydroxyphenyl)-N-(4-(3-(dimethylamino)phenoxy)benzyl)-1H-1,2,4-triazole-3-carboxamide]
